# Experimental data reported in patent US5741781A, “Mercaptoalkanoyldipeptide compounds” (Adir et Compagnie, priority 1995, dated 1998).
# Assays:
# [1] = target: neutral endopeptidase (NEP) (Homo sapiens, UniProt P08473); assay: Inhibitory effect in vitro on neutral endopeptidase, [3H]-D-Ala2-Leu-encephalin as substrate; assay type: biochemical; settings: in vitro
# [2] = target: peptidyldipeptidase A (ACE) (Homo sapiens, UniProt P12821); assay: Inhibitory effect in vitro on peptidyldipeptidase A, Z-Phe-His-Leu as substrate; assay type: biochemical
# peptidyldipeptidase A (ACE), sequence (P12821 30-1306, species assumed): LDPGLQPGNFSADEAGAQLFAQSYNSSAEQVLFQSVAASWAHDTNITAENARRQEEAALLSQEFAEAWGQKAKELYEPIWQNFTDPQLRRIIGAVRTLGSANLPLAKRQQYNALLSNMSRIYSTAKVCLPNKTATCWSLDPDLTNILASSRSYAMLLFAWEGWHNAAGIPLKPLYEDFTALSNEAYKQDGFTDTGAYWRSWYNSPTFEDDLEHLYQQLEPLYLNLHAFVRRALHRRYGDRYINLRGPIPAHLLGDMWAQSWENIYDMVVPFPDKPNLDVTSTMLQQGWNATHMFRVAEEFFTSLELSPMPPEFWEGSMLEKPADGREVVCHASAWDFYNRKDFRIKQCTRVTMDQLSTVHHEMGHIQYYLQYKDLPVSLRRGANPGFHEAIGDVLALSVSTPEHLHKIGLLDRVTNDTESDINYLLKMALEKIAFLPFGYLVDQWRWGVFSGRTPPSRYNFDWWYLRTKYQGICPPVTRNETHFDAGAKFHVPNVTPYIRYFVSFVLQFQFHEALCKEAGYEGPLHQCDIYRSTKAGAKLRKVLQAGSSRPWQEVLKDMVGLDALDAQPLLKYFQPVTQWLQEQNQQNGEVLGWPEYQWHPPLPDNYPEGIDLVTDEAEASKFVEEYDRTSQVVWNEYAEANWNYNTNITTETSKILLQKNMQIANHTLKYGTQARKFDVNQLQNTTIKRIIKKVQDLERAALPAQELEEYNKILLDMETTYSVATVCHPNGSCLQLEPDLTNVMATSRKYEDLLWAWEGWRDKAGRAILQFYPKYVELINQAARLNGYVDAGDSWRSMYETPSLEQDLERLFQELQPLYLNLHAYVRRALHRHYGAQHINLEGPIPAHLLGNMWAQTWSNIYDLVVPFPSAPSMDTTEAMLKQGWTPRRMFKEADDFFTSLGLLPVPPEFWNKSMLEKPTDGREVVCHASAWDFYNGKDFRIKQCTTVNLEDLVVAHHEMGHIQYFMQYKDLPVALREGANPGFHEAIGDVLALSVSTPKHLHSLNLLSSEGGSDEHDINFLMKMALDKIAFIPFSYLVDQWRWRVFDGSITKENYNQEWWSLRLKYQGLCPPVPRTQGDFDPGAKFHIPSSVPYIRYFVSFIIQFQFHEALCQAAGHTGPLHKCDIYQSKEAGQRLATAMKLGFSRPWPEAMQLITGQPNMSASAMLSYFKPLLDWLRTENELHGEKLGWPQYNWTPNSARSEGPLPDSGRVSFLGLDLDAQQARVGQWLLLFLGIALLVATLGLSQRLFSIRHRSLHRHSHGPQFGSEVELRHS
# Description: The inhibitory properties of the compounds of the invention are measured using [^3 H]-D-Ala^2 -Leu-encephalin as substrate for neutral endopeptidase, in accordance with the protocol described by Llorens et al. (Biochem. Biophys. Res. Commun., 96, (1980), 1710 sqq), and Z-Phe-His-Leu as substrate in the case of peptidyldipeptidase A in accordance with the protocol described in Biochem. Biophys. Acta, 206, (1970), 136-142.
# neutral endopeptidase (NEP), sequence (P08473 whole entry, species assumed): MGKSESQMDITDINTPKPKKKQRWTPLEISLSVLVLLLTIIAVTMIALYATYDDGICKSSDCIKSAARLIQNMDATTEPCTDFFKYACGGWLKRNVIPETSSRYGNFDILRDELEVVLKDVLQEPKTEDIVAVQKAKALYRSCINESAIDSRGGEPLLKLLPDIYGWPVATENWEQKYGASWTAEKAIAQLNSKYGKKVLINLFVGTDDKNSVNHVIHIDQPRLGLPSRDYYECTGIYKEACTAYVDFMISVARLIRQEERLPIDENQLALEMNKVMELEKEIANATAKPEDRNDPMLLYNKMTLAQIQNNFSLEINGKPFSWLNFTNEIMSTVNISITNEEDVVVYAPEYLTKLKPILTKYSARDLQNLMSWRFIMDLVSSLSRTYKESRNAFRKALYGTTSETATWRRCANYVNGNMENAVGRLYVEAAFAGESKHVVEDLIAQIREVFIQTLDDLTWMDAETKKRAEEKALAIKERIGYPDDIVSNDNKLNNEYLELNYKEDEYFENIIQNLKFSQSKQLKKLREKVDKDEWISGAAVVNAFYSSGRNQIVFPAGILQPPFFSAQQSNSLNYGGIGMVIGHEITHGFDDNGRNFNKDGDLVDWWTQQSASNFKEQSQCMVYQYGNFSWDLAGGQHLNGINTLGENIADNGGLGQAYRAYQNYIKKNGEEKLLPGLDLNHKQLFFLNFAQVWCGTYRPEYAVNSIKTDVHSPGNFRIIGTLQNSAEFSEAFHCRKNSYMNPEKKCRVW
IC50 [1] [nM],IC50 [2] [nM],Structure (SMILES)
1.6 ± 0.3,0.55 ± 0.05,"O=C(NCC(=O)N1C(c2ccccc2)CC[C@H]1C(=O)O)C(S)Cc1ccccc1 (some centres unmarked) [Example 3, N-[N-(2-Mercapto-3-phenylpropanoyl)glycyl]-5-phenylproline]"
1.1 ± 0.3,0.5 ± 0.1,"O=C(NCC(=O)N1C(c2ccccc2O)CC[C@H]1C(=O)O)C(S)Cc1ccccc1 (some centres unmarked) [Example 5, N-[N-(2-Mercapto-3-phenylpropanoyl)glycyl]-5-(ortho-hydroxyphenyl)-proline]"
4.3 ± 0.3,0.35 ± 0.05,"O=C(NCC(=O)N1C(c2ccccc2O)CC[C@H]1C(=O)O)C(S)Cc1ccc(O)cc1 (some centres unmarked) [Example 7, N-[N-[2-Mercapto-3-(para-hydroxyphenyl)propanoyl]glycyl]-5-(ortho-hydroxyphenyl)proline]"
3.4 ± 0.8,4.2 ± 0.4,"O=C(NCC(=O)N1C(c2ccccc2)CC[C@H]1C(=O)O)C(S)Cc1ccc(O)cc1 (some centres unmarked) [Example 10, N-[N-[2-Mercapto-3-(para-hydroxyphenyl)propanoyl]glycyl]-5-phenylproline]"
1.8 ± 0.4,3.5 ± 0.5,"Nc1ccc(CC(S)C(=O)NCC(=O)N2C(c3ccccc3)CC[C@H]2C(=O)O)cc1 (some centres unmarked) [Example 14, N-[N-[2-Mercapto-3-(para-aminophenyl)propanoyl]glycyl]-5-phenylproline]"
26 ± 3,23 ± 3,"Nc1ccc(C2CC[C@@H](C(=O)O)N2C(=O)CNC(=O)C(S)Cc2ccc(O)cc2)cc1 (some centres unmarked) [Example 16, N-[N-[2-Mercapto-3-(para-hydroxyphenyl)propanoyl]glycyl]-5-(para-aminophenyl)proline]"
1.6 ± 0.3,0.7 ± 0.2,"O=C(NCC(=O)N1C(c2cccc(O)c2)CC[C@H]1C(=O)O)C(S)Cc1ccc(O)cc1 (some centres unmarked) [Example 18, N-[N-[2-Mercapto-3-(para-hydroxyphenyl)propanoyl]glycyl]-5-(metahydroxyphenyl)proline]"
2.4 ± 0.8,1.4 ± 0.7,"O=C(NCC(=O)N1C(c2cccc(O)c2)CC[C@H]1C(=O)O)C(S)Cc1ccccc1 (some centres unmarked) [Example 20, N-[N-(2-Mercapto-3-phenylpropanoyl)glycyl]-5-(meta-hydroxyphenyl)proline]"
6 ± 1,0.45 ± 0.05,"O=C(NCC(=O)N1C(c2ccc(O)cc2)CC[C@H]1C(=O)O)C(S)Cc1ccc(O)cc1 (some centres unmarked) [Example 22, N-[N-[2-Mercapto-3-(para-hydroxyphenyl)propanoyl]glycyl]-5,(para-hydroxyphenyl)proline]"
1.2 ± 0.4,0.9 ± 0.06,O=C(NCC(=O)N1C(c2ccccc2O)CC[C@H]1C(=O)O)C(S)Cc1ccc(Cl)cc1 (some centres unmarked) [Example 24]
2.3 ± 0.3,0.4 ± 0.05,"COc1ccc(CC(S)C(=O)NCC(=O)N2C(c3ccccc3O)CC[C@H]2C(=O)O)cc1 (some centres unmarked) [Example 26, N-[N-[2-Mercapto-3-(para-methoxyphenyl)propanoyl]glycyl]-5-(orthohydroxyphenyl)proline]"
2.5 ± 0.6,2.2 ± 0.2,"COc1ccc(CC(S)C(=O)NCC(=O)N2C(c3ccccc3OC)CC[C@H]2C(=O)O)cc1 (some centres unmarked) [Example 28, N-[N-[2-Mercapto-3-(para-methoxyphenyl)propanoyl]glycyl]-5-(orthomethoxyphenyl)proline]"
10 ± 2,8.2 ± 0.5,"Cc1ccc(C2CC[C@@H](C(=O)O)N2C(=O)CNC(=O)C(S)Cc2ccccc2)cc1 (some centres unmarked) [Example 30, N-[N-(2-Mercapto-3-phenylpropanoyl)glycyl]-5-(para-methylphenyl)proline]"
5 ± 0.5,3.2 ± 0.4,"Cc1ccc(C2CC[C@@H](C(=O)O)N2C(=O)CNC(=O)C(S)Cc2ccc(O)cc2)cc1 (some centres unmarked) [Example 32, N-[N-[2-Mercapto-3-(para-hydroxyphenyl)propanoyl]glycyl]-5-(para-methylphenyl)proline]"
3.1 ± 0.3,5.2 ± 0.5,"Cc1ccccc1C1CC[C@@H](C(=O)O)N1C(=O)CNC(=O)C(S)Cc1ccc(O)cc1 (some centres unmarked) [Example 34, N-[N-[2-Mercapto-3-(para-hydroxyphenyl)propanoyl]glycyl]-5-(ortho-methylphenyl)proline]"
4 ± 0.6,3.5 ± 0.6,"Cc1ccccc1C1CC[C@@H](C(=O)O)N1C(=O)CNC(=O)C(S)Cc1ccccc1 (some centres unmarked) [Example 36, N-[N-(2-Mercapto-3-phenylpropanoyl)glycyl]-5-(ortho-methylphenyl)proline]"
